Data published in patent publication US10328075B2, “Method of treatment and compounds for use therein” (Baker Heart and Diabetes Institute, priority 2015, dated 2019).
No end group written: not given here.

Tests used:
[1] = system: neonatal rat ventricular cardiomyocyte; test: Hypoxia-reoxygenation (simulated I-R) injury in neonatal rat cardiomyocytes, LDH and cTnI release; type: cell-based; settings: 1 μM
Experimental: Isolation of primary neonatal rat ventricular cardiomyocyte: All materials used for cardiomyocyte isolation were of tissue culture grade. Cardiomyocyte isolation was performed by serial enzymatic digestions, as previously described (Irvine, J C et al, AJP, 2013). Cardiomyocyte were suspended in sterile DMEM, supplemented with 100 U/mL penicillin, 100 μg/mL streptomycin, and 10% FCS. The myocyte-rich cell suspension was preplated twice (45 min at 37° C.) to reduce fibroblast contamination. Cardiomycte was then plated onto 12-well plates at 0.5×10^6 for lactate dehydrogenase (LDH) assay in the presence of 1% 5-bromo-2′-deoxyuridine (BrdU, to limit proliferation of any remaining fibroblasts).
Simulated ischaemic-reperfusion in neonatal rat cardiomyocytes: The medium for cardiomyocytes was changed to serum-free low glucose DMEM after at least 48 h after isolation. […] Agonists were dissolved in DMEM or Krebs' buffer and were present for the full duration of hypoxia and reoxygenation. At the end of 48 h reoxygenation, culture supernatant aliquots was collected on ice and stored at −80° C. for assessment of cardiomyocyte injury. Samples were thawed on ice, and cell injury assessment determined via the level of LDH released into the supernatant, using the Cyto-Tox-One™ Homogeneous Membrane Integrity Assay as per manufacture's instruction (Promega Inc, Dane Country, Wis., USA). To confirm the extent of cardiomyocyte injury, levels of cTn in the supernatant were also evaluated, using a commercially available high-sensitivity rat cTnI ELISA kit (Life Diagnostic Inc, West Chester, Pa., USA) as per manufacturer's instructions.
(§1) Isolation and culture of primary rat cardiomyocytes and mouse cardiac fibroblasts: All materials used for cell isolation were of tissue culture grade. Isolation of primary neonatal rat cardiac cardiomyocytes (NRCM) and adult mouse cardiac fibroblasts (AMCF) was performed by serial enzymatic digestion, as previously described (Irvine et al 2012 & Irvine et al. 3) NRCM were plated onto either 12-well tissue culture plates (for simulated ischemia-reperfusion, via hypoxia-reoxygenation, H-R) or 60 mm tissue culture dishes (for gene expression) at a density of 1.3×10^5 cells/cm^2, in the presence of 1% 5-bromo-2′-deoxyuridine. AMCF (passage #3) were seeded onto 60 mm tissue culture dishes at 9.5×10^4 cells/cm^2 and allowed to grow to 80% confluence prior to study. Following 48 h in serum-free DMEM, NRCM in 12-well tissue plates were subjected to simulated ischemia, induced by replacement of culture media with sterile-filtered Kreb's buffer (118 mM NaCl, 4.8 mM KCl, 1.2 mM KH2PO4, 1.2 mM MgSO4, 25 mM NaHCO3, […], 11.0 mM glucose, 1.75 mM CaCl2) prior to incubation for 6 h at 37° C. under hypoxia (95% N2-5% CO2, using a hypoxia chamber, QNA International, Melbourne, Australia). At the end of hypoxia, Kreb's buffer was replaced with fresh, sterile-filtered Kreb's buffer, in the presence or absence of FPR agonists Cmpd17b, Cmpd43 (both 1 μM or vehicle, and NRCM were subjected to 48 h reoxygenation at 37° C. At the end of 48 h reoxygenation, NRCM supernatant was collected for assessment of cardiomyocyte injury. Cardiomyocyte release of cTnI was determined using a commercially available, high-sensitivity rat cTnI ELISA kit (Life Diagnostic Inc.) as per the manufacturer's instructions. Separate NRVM on 60 mm dishes were incubated for 48 h at 37° C. in serum-free DMEM, in the presence or absence of FPR agonists Cmpd17b, Cmpd43 (both 1 μM) or vehicle. At the end of 48 h, RNA was extracted and real-time PCR performed (as described previously (Huynh et al. 2012)), to determine the relative gene expression of rat Fprs (rFpr1, rFpr2 and rFpr3, expressed as the threshold cycle number Ct subtracted from the maximum cycle number utilized, 40).
Cardiomyocytes injury responses in vitro: Neonatal rat cardiomyocytes and adult mouse cardiofibroblasts were isolated and cultured as described (online Supplement). […]

[2] = system: rFpr1, rFpr2 expression in NRCM; test: Fpr gene expression in neonatal rat cardiomyocytes (real-time PCR); type: cell-based; settings: 1 μM, 48 h incubation
Experimental: as §1

[3] = present only during reoxygenation
[4] = present for the full duration of 6 h hypoxia and 48 h reoxygenation

| Compound | Cardiomyocyte cTnI release after hypoxia-reoxygenation [1, 3] | Cardiomyocyte cTnI release after hypoxia-reoxygenation ([1]; present only during reoxygenation, listed as Cmpd17b) | NRCM expression of rFpr1 [2] | NRCM expression of rFpr2 [2] | Cardiomyocyte LDH release after hypoxia-reoxygenation [1, 4] | Cardiomyocyte cTnI release after hypoxia-reoxygenation [1, 4] | Cardiomyocyte LDH release after hypoxia-reoxygenation [1, 3] |
| --- | --- | --- | --- | --- | --- | --- | --- |
| COc1cccc(Cc2cc(C)nn(C(C)C(=O)Nc3ccc(Br)cc3)c2=O)c1 (centres unmarked) [BIDI-001, N-(4-bromophenyl)-2-[5-(3-methoxybenzyl)-3-methyl-6-oxo-6H-pyridazin-1-yl]-propionamide] | significantly reduced | rescued | did not significantly influence | did not significantly influence | – | – | – |
| CC(C)C1C(NC(=O)Nc2ccc(Cl)cc2)C(=O)N(c2ccccc2)N1C (centres unmarked) [BIDI-002] | significantly reduced | – | without impact | tended to reduce | – | – | – |
| Ac2-26: Annexin-A1 N-terminal peptide, peptide ANX-A1 mimetic (Ac-AMVSEFLKQAWFIENEEQEYVQTVK; UniProt P04083 2-26, looked up, fragment) | significantly attenuated | – | – | – | significantly reduced | significantly reduced | non-significant trend |
